# Columns and labels:
# [1] = target: T1, OST1/SnRK2.6 (Arabidopsis thaliana, UniProt Q940H6); experiment: In vitro phosphorylation assay of CIAP-dephosphorylated GST-OST1/SnRK2.6 with other protein kinases; assay type: biochemical; settings: GST-OST1/SnRK2.6 dephosphorylated by CIAP, [γ-32P]-ATP
# T1 construct: made in house; host or cells: E. coli
# T1 sequence (Q940H6 1-362): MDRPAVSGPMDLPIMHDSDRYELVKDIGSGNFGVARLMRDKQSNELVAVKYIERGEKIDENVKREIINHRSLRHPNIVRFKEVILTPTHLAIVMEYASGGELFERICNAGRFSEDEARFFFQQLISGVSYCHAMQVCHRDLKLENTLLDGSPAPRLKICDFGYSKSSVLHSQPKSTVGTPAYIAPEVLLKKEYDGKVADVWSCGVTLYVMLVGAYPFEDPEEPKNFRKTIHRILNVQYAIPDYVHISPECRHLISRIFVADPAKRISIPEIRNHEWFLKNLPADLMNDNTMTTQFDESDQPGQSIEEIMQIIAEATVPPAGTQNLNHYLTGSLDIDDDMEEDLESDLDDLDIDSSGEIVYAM
# Protocol: We investigated phosphorylation of purified recombinant GST-tagged OST1/SnRK2.6 protein kinase after dephosphorylation in vitro. To test whether OST1/SnRK2.6 could be re-activated by autophosphorylation, after dephosphorylation, the GST-OST1/SnRK2.6 protein bound on glutathione sepharose 4B resin was incubated with calf intestinal alkaline phosphatase (CIAP), and [γ-^32P]-ATP was added to the reaction after wash out of CIAP. […] Therefore, another unknown protein kinase may be required for reversible ABA signal transduction.
# 10 μg GST-OST1/SnRK2.6 proteins were bound to glutathione sepharose 4B beads and incubated with 30 U CIAP for 2 hr at room temperature. […]
# a, Seeds of amiR-HsMYO wild-type (control line) or amiR-ax1117 mutant were sowed on ½ MS medium containing 2 μM ABA, or 0.02% EtOH as control, for germination assays. Representative images showing seed germination after 6 days. b, The percentage of seedlings showing green cotyledons was analyzed. […] In-gel kinase assays were performed using histone type III-S as a substrate. e, SnRK2 band intensities as shown in (d) were measured using ImageJ, n=3 experiments, error bars show +/−s.e.m. f, Recombinant GST-OST1/SnRK2.6 protein was dephosphorylated by alkaline phosphatase in vitro and used for in vitro phosphorylation assays after incubation with CPK6, CPK23 or MPK12 protein kinases. […]
# [2] = system: S-type anion channels; experiment: Patch-clamp analyses of S-type anion channel currents in guard cell protoplasts; assay type: cell-based, Arabidopsis; settings: 10 μM, guard cells of wildtype (Col-0) and HsMYO control line
# Protocol: Guard cell protoplasts from 4 to 6 week-old Arabidopsis plants were prepared^24,33 ABA-activated S-type anion channel current recordings were carried out by using an Axon 200A amplifier (Axon instruments) and a Digidata 1440A low-noise data acquisition system. Epidermal tissues were isolated from one or two rosette leaves and collected using a nylon mesh (100-μm pore size). […]
# S-type anion currents in guard cell protoplasts were recorded using the whole-cell patch-clamp technique^24,33. […]
# a, Leaves from m3k amiRNAi and the control amiRNA-HsMYO line (expressing an amiRNA targeting human myosin 2), which has no target gene in Arabidopsis plants were analyzed in time-resolved stomatal conductance analyses in which 1 μM ABA was added to the transpiration stream via the petiole (as described in e.g., Ceciliato, P. et al. Plant Methods 15, doi:10.1186/s13007-019-0423-y (2019)) as indicted by the red arrowhead (n=3 leaves from 3 independent plants per genotype, +/−s.d.). b, Normalized relative stomatal conductance to the first data point shown in (a). c-h, ABA-activated S-type anion channel currents were investigated by patch-clamp analyses using guard cell protoplasts from the wildtype parent Col-0 (c, d), the HsMYO amiRNA control line (e, f), and the m3k amiRNA line (g, h). […]
# [3] = system: SLAC1; experiment: Two-electrode voltage clamp recordings of SLAC1 currents in Xenopus oocytes; assay type: cell-based, Arabidopsis; settings: Xenopus oocytes co-injected with PYL9/RCAR1, ABI1, OST1/SnRK2.6, SLAC1 with or without M3Ks, 50 μM ABA
# Source text: The PCR amplified cDNA fragments of OST1, SLAC1, PYL9/RCAR1, ABI1, M3Kδ1, M3Kδ6 and M3Kδ7 were cloned into the oocyte expression vector pNB1 by using an advanced uracil-excision based cloning strategy as previously described^60. The mutant isoforms OST1-S171A, M3Kδ6-K775W and M3Kδ7-K740W were generated using the Quikchange Site-Directed Mutagenesis kit (Agilent Technologies). Linearized plasmids were used to generate cRNAs via the mMESSAGE mMACHINE® T7 kit (Thermo Fisher Scientific, Catalog number: AM1344). […] Steady state currents were recorded with 3 second voltage pulses ranging from +40 mV to −120 mV in −20 mV decrements, followed by a “tail” voltage of −120 mV and the holding potential was kept at 0 mV.
# SLAC1-mediated currents in oocytes vary showing either time-dependent relaxation or more instantaneous currents when using a chloride bath solution^61,62. […] To avoid time-of-measurement and inter-batch dependence in the data, H2O-injected control and other indicated controls were included in each batch of oocytes and control experiments were recorded intermittently with the investigated conditions.
# a and b, In vitro reconstitution of ABA-induced OST1/SnRK2 activation without M3Kδ6 (a) or with M3Kδ6 (b). […] Phosphorylation of AKS1 is detected by binding of 14-3-3Phi (At1g35160) to the phosphorylated AKS1 protein^15. […]
# [4] = system: OST1/SnRK2.6; experiment: In vivo Ser-171 phosphorylation of OST1/SnRK2.6-GFP in mesophyll cell protoplasts by LC-MS/MS; assay type: cell-based, Arabidopsis; settings: 20 μM ABA for 15 min vs control
# Protocol: 30 μg GST-OST1/SnRK2.6(D140A) and 2.5 μg GST-M3Kδ1 kinase domain were incubated in phosphorylation buffer (50 mM Tris-HCl pH 7.5, 10 mM MgCl2, 0.1% Triton X-100, and 1 mM DTT) with 1 mM ATP for 2 hr at room temperature. Proteins were precipitated by acetone precipitation and dissolved in SDS-PAGE loading buffer. After SDS-PAGE and CBB staining, protein bands of GST-OST1/SnRK2.6(D140A) were excised and analyzed by LC-MS/MS^17. For in vivo Ser-171 phosphorylation, OST1/SnRK2.6-GFP was transiently expressed in Arabidopsis mesophyll cell protoplasts. The protoplasts were incubated with or without 20 μM ABA for 15 min, and OST1/SnRK2.6 proteins were purified by immunoprecipitation using anti-GFP antibodies. After SDS-PAGE and CBB staining, OST1/SnRK2.6-GFP bands were excised and analyzed by LC-MS/MS^17
# a, The sequence of identified phosphorylated peptide by mass spectrometry. OST1/SnRK2.6-GFP was expressed in Arabidopsis mesophyll cell protoplasts and purified by immunoprecipitation with GFP antibodies before or after 20 μM ABA treatment for 15 min. S(+79.97) indicates phosphorylated serine residues. Values (Control and ABA) indicate normalized peak areas for phosphorylated peptides. The phosphorylated peptide was not detected in the control sample.
phosphorylation of OST1/SnRK2.6 after dephosphorylation [1],Compound,activation of S-type anion currents in guard cells [2],ABA-dependent SLAC1 anion channel activation [3],phosphorylation of OST1 Ser171 in mesophyll cells [4]
did not phosphorylate,CPK23: calcium-dependent protein kinase of ABA signalling,–,–,–
–,"CC1=CC(=O)CC(C)(C)[C@@]1(O)/C=C/C(C)=C\C(=O)O [ABA, abscisic acid]",typical ABA activation of S-type anion currents,"could activate SLAC1 in oocytes only in the presence of low concentrations of either M3Kδ1, M3Kδ6 or M3Kδ7 mRNAs",clearly phosphorylated

# — US20220154204A1, “ENHANCING DROUGHT, SALINITY AND COLD TOLERANCE IN PLANTS AND TREES” (The Regents of the University of California, priority 2019, published 2022)
